Values after ≈ are worked out from the molar mass of the structure shown. Where two headings read alike, the source gives them in different places.
Experiments:
Type in all cases: cell-based
[1] = system: P. aeruginosa overexpressing an efflux pump (PaR1); test: MIC by microdilution, clinical isolate; settings: Pseudomonas aeruginosa
Experimental: (§1) The study also included 5 clinical isolates, obtained from rectal samples and/or from haemoculture: • […] E. coli (EcR1), • methicillin-resistant S. aureus (mecA gene) (SaR1), • vancomycin-resistant E. faecium (vanB gene) (EfR1), • E. faecalis resistant to teicoplanin and to vancomycin (vanA gene) (EfR2), and • P. aeruginosa overexpressing an efflux pump (PaRl).
(§2) The isolates were selected on the basis of their resistance profile. The resistance profiles were determined on VITEK2 (BioMérieux, France).
(§3) The bacteria are cultivated either on Mueller-Hinton agar (Difco, 225250), or in Mueller-Hinton broth (Difco, 275730), at 35° C. [Grare M, Mourer M, Fontanay S, Regnouf-de-Vains J B, Finance C, Duval R E. In vitro activity of para-guanidinoethylcalix[4]arene against susceptible and antibiotic-resistant Gram-negative and Gram-positive bacteria. J. Antimicrob Chemother. 2007; 60: 575-81].
(§4) The various molecules tested were prepared in the form of aqueous solution at 10^−2 mol/L. The solutions used for the biological tests are freshly prepared, and stored for a week at most, at 4° C. The solutions are filtered through a filter with pores of 0.22 μm (Millex®GP; 0.22 μm; Millipore; France) before each test.
(§5) Procedure for determining the Minimum Inhibitory Concentration (MIC)
(§6) The minimum inhibitory concentrations (MIC) were determined by the standardized method of microdilution in liquid medium (96-well microplate, U-shaped bottom, Greiner), in Mueller-Hinton broth, with a final inoculum of 10^5-10^6 CFU/mL, depending on the bacterial species, in accordance with the recommendations of the CLSI.
(§7) For the determination of MIC, bacterial suspensions are prepared from an isolated colony, taken from a Mueller-Hinton agar, taken up in 5 mL of Mueller-Hinton broth. After 24 h of growth, the bacterial suspensions are diluted in sterile distilled water in order to obtain an inoculum of 10^5-10^6 CFU/mL. The purity of the bacterial suspensions is tested by isolation on agar and Gram staining.
(§8) The results are the mean value of 4 independent experiments.

[2] = system: E. faecalis resistant to teicoplanin and to vancomycin (vanA gene) (EfR2); test: MIC by microdilution, clinical isolate; settings: Enterococcus faecalis
Experimental: as §1, §2, §3, §4, §5, §6, §7, §8

[3] = system: penicillinase-producing E. coli (EcR1); test: MIC by microdilution, clinical isolate; settings: Escherichia coli
Experimental: as §1, §2, §3, §4, §5, §6, §7, §8

[4] = system: MRSA (mecA gene), methicillin-resistant S. aureus (SaR1); test: MIC by microdilution, clinical isolate; settings: Staphylococcus aureus
Experimental: as §1, §2, §3, §4, §5, §6, §7, §8

[5] = system: vancomycin-resistant E. faecium (vanB gene) (EfR1); test: MIC by microdilution, clinical isolate; settings: Enterococcus faecium
Experimental: as §1, §2, §3, §4, §5, §6, §7, §8

in vitro [6] = settings: human
Text: (§9) The eukaryotic cells used in our study are HaCaT cells (human keratinocytes), which were kindly supplied by the Pierre Fabre Institute (Toulouse, France); and MRC-5 cells (human embryonic fibroblasts), which were obtained from the company BioMérieux (Lyons, France). These cells are cultivated in DMEM (“Dulbecco's modified Eagle's medium”, Invitrogen 61965) for the HaCaT cells, and MEM (“modified Eagle's medium”, Invitrogen 41090); 10% of fetal calf serum (FCS, Invitrogen, 10270, Batch 40Q5150K) in a humid chamber at 37° C., under 5% CO2. The HaCaT and MRC-5 cells were seeded at 10^4 cells/well in 96-well plates (Sarstedt 831835). After 48 h of growth, the culture medium is withdrawn and replaced with the various “test” solutions (volume=100 μL). After contact time of 24, 48 and/or 168 H,the viability or cytotoxicity tests are carried out.
(§10) b) Cytotoxicity Tests (Neutral Red Test)
(§11) The cytotoxicity test is based on incorporation of a vital dye, Neutral Red, in the lysosomes of the viable cells, after exposure of the cells to different concentrations of the test molecules. The quantity of dye, after extraction from the lysosomes, is quantified by means of a spectrophotometer and compared with that obtained in the case of “control” cells, not exposed to the test molecules.
(§12) The test was carried out as described previously [Borenfreund E, Puerner J A. Toxicity determined in vitro by morphological alterations and neutral red absorption. Toxicol Lett 1985; 24: 119-24, and Grare M, Mourer M, Fontanay S, Regnouf-de-Vains J B, Finance C, Duval R E. In vitro activity of para-guanidinoethylcalix[4]arene against susceptible and antibiotic-resistant Gram-negative and Gram-positive bacteria. J Antimicrob Chemother. 2007; 60: 575-81].
(§13) After contact times of 24, 48 and/or 168 h with the different concentrations of the test molecules, the medium contained in each well is withdrawn and replaced with 200 μL of medium without phenol red (Invitrogen, 51200) containing 50 μg/mL of Neutral Red for an additional 3 h of incubation. The cells are then rinsed 3 times with PBS solution. After the last washing with PBS, 200 μL of a solution with 1% acetic acid/50% ethanol is added to each well to extract the dye from the lysosomes of the viable cells. The absorbance is measured at 540 nm, with a reference wavelength at 690 nm, by means of an ELISA plate reader (Multiskan E X, Thermo Electron Corporation, France). The results are the mean of the values obtained for 8 wells per concentration and per unit time. Each experiment was carried out 3 times.

in vitro [7] = settings: human; remark: listed apart in the source
Text: as §9, §10, §11, §12, §13

[8] = system: Escherichia coli ATCC 25922; test: MIC by microdilution in liquid medium (CLSI / CA-SFM); settings: E. coli ATCC 25922; HaCaT cell lines, 24 h exposure
[9] = system: Pseudomonas aeruginosa ATCC 27853; test: as above; settings: P. aeruginosa ATCC 27853; HaCaT cell lines, 24 h exposure
[10] = system: Staphylococcus aureus ATCC 25923; test: as above; settings: Staphylococcus aureus
Text: According to the joint recommendations: • of the “Comite de l′Antibiogramme de la Société Française de Microbiologie” (Antibiogram Committee of the French Society of Microbiology) (CA-SFM) [CA-SFM. Communique 2007 (Edition of January 2007). http://www.sfm.asso.fr] and, • of the “Clinical and Laboratory Standards Institute” (CLSI, formerly “National Committee for Clinical Laboratory Standards” or NCCLS) [NCCLS. 2003. Methods for dilution antimicrobial susceptibility tests for bacteria that grow aerobically; approved standard M7-A6, 6th ed. National Committee for Clinical Laboratory Standards, Wayne, Pa., USA.], five reference bacterial strains were used for the study: Escherichia coli ATCC 25922, Pseudomonas aeruginosa ATCC 27853, Staphylococcus aureus ATCC 25923 & ATCC 29213 and Enterococcus faecalis ATCC 29212.
as §3, §4, §5, §6, §7, §8

[11] = system: Enterococcus faecalis ATCC 29212; test: as above; settings: E. faecalis ATCC 29212; HaCaT cell lines, 24 h exposure
[12] = clinical isolate, E. faecalis (vanA gene), read-out: MIC
[13] = clinical isolate, penicillinase-producing E. coli, read-out: MIC
[14] = clinical isolate, MRSA (mecA gene), read-out: MIC
[15] = clinical isolate, E. faecium (vanB gene), read-out: MIC
[16] = ATCC25923, S. aureus ATCC 25923, reference strain, read-out: MIC

Compound | MIC [1] [µg/mL] | MIC [2, 12] [µg/mL] | MIC [3, 13] [µg/mL] | MIC [4, 14] [µg/mL] | MIC [5, 15] [µg/mL] | CC50 at 24 h (in vitro [6]) [µg/mL] | CC50 at 24 h (in vitro [7]) [µg/mL] | Selectivity index (SI=IC50/MIC) [8] | Selectivity index (SI=IC50/MIC) [9] | MIC [10, 16] [µg/mL] | Selectivity index (SI=IC50/MIC) [11] | MIC [2] [µg/mL] | MIC [3] [µg/mL] | MIC ([4]; MRSA) [µg/mL] | MIC [5] [µg/mL] | CC50 at 48 h (in vitro [6]) [µg/mL] | CC50 at 48 h (in vitro [7]) [µg/mL] | MIC ([10]; ATCC25923) [µg/mL] | CC50 at 168 h (in vitro [7]) [µg/mL]
[H]/N=C(\N/C(=N/[H])NCCCCCCNC(=N)NC(=N)Nc1ccc(Cl)cc1)Nc1ccc(Cl)cc1 [CHX, chlorhexidine] | 8 (≈ 15.8 µM) | 2 (≈ 3.96 µM) | 0.5 (≈ 0.989 µM) | 0.5 (≈ 0.989 µM) | 1 (≈ 1.98 µM) | 8 to 16 (≈ 15.8 to 31.7 µM) | 8 to 16 (≈ 15.8 to 31.7 µM) | 64-128 | 2-4 | 0.5 (≈ 0.989 µM) | 8-16 |  |  |  |  |  |  |  | 
N=C(N)c1ccc(OCCCCCCOc2ccc(C(=N)N)cc2)cc1 [HX, hexamidine] | 64 (≈ 181 µM) |  |  |  |  | 8 to 16 (≈ 22.6 to 45.1 µM) | 8 to 16 (≈ 22.6 to 45.1 µM) | 4-8 | 1-2 |  | 16-32 | 4 (≈ 11.3 µM) | 8 (≈ 22.6 µM) | 2 (≈ 5.64 µM) | 2 (≈ 5.64 µM) | 8 to 16 (≈ 22.6 to 45.1 µM) | 8 to 16 (≈ 22.6 to 45.1 µM) | 4 (≈ 11.3 µM) | 
N=C(N)NCCc1ccc(OCCCCCCOc2ccc(CCNC(=N)N)cc2)cc1 [compound 6, 1,6-bis(4-(2-guanidinoethyl)phenoxy)hexane] | 32 (≈ 72.6 µM) | 16 (≈ 36.3 µM) | 4 (≈ 9.08 µM) | < 1 | 8 (≈ 18.2 µM) | 4 to 8 (≈ 9.08 to 18.2 µM) | 4 to 8 (≈ 9.08 to 18.2 µM) | 1-2 | 0.25-0.5 | 0.5 (≈ 1.13 µM) | 0.5-1^ |  |  |  |  |  | 2 to 4 (≈ 4.54 to 9.08 µM) |  | 1 to 2 (≈ 2.27 to 4.54 µM)
